We go through 2 compounds from patent US20240148691A1, “Treatment of Hypertension-Related and Vascular Diseases” (The Medical College of Wisconsin, Inc., priority 2021, published 2024).

“Also recorded” adds a separate entry of the source.

Data set [1] is described as follows: Blood pressure and body weight during long-term treatment of hypertensive rats. The class given is in vivo, rat. Here is the method: To assess whether treatment with SHetA2 would reduce the systolic blood pressure in hypertensive rats, animals were treated for 18 weeks with either vehicle control or SHetA2.
(§1) SS rats were weaned at 3 weeks of age and transferred to 1% salt diet for additional 3 weeks before treatment. At 6 weeks of age, rats were either given vehicle control or SHetA2 at 60 mg/kg by oral gavage. Oral gavage was performed 3 times weekly every other day for a period of 18 weeks. […] Urine was collected from rats housed in metabolic cages for 1-2 hours, approximately 24 hours after last treatment after 6, 12 and 18 weeks of treatment. […] Vascular reactivity of renal afferent arterioles was measured using the juxtamedullary nephron technique approximately 24 hours after final treatment (18 weeks) (FIG. 7).

Data set [2] relates to renal afferent arterioles. In words: Renal afferent arteriole microvascular responses (juxtamedullary nephron technique) after chronic treatment of hypertensive SS rats. The class given is in vivo, rat. The method, then:
(§2) Microvascular responses of renal afferent preglomerular arterioles to perfused pressure. Juxtamedullary nephron vasculature was isolated, and an afferent arteriole was monitored continuously by videomicroscopy. SS/BN2 refers to BN chromosome replacement into SS background. Thus, SS/BN2 are not expected to be salt-sensitive and represent a control for the SS strain.
Vascular reactivity of renal afferent arterioles was measured using the juxtamedullary nephron technique approximately 24 hours after final treatment (18 weeks) (FIG. 9). Remarkably, SHetA2 restored renal microvascular responses in hypertensive rats, as detected by response of afferent arterioles either to increasing perfusion pressure or to ATP, known mediator of afferent arteriolar autoregulatory responses (FIG. 8).
as §1

For the next data set, the system named is diabetic nephropathy. In words: Urinary protein excretion in diabetic animals. The class given is in vivo, rat. An excerpt:
(§3) The inventors hypothesized that SHetA2 would be effective in preventing and treating diabetic nephropathy. Therefore, the inventors treated rats with diabetes induced by streptozotocin (STZ) with SHetA2. […] (FIGS. 20-21).

For data set [3] the following is noted: cited from earlier work.
In the next data set the test system is afferent arterioles. The experiment in a line: Renal microvascular responses in streptozotocin-induced diabetic rats. The class given is in vivo, rat. The settings on record: for renal microvascular responses: diabetic animals.
Excerpt: as §3

Data set [4] concerns hypertension-induced nephropathy. In words: Urinary protein excretion in salt-sensitive hypertensive rats. It counts as in vivo, rat. The method, then: as §1
Hypertension-induced nephropathy causes excessive protein excretion in the urine.

The test system of data set [5] is renal afferent preglomerular arterioles. In words: Renal afferent preglomerular arteriole microvascular responses, SHetA2 added in vitro. Set-up: species or system rat.
Excerpt: as §2
Microvascular reactivity of renal blood vessels is reduced in two major causes of end stage renal disease: hypertension-induced nephropathy (HN) and diabetic nephropathy. One of the highlights of vascular dysfunction in HN is the loss of autoregulation of blood resistance vessels. Using rat model of salt-sensitive (SS) HN we have previously shown that overexpression of adaptor protein p66Shc is implicated in the loss of microvascular reactivity during the progression of HN (FIGS. 3, 5). In HN p66Shc is over-expressed in vascular smooth muscle cells of the walls of renal resistance arteries, including afferent arteriole (FIG. 4). p66Shc knockout restores the ability of afferent arteriole to contract in response to increased perfusion pressure and ATP (FIG. 5) and mitigates glomerular damage in SS rats on 1% salt diet. In this study, we tested ability of a flexible heteroarotinoid called Sulfur Heteroarotinoid A2 (SHetA2, pronounced Ess-Het-Aye-Two), known to inhibit p66Shc action, to prevent development and restore renal microvascular responses in hypertensive rats when added after the development of hypertension-induced nephropathy. […] Remarkably, SHetA2 prevented loss of microvascular reactivity and restored renal microvascular responses in hypertensive rats, as detected by response of afferent arterioles either to increasing perfusion pressure or to ATP, known mediator of afferent arteriolar autoregulatory responses (FIG. 6).

Another data set has as its system KATP channels. The experiment in a line: Glibenclamide-induced arteriole constriction in diabetic rats. Further details: species or system rat. The source says: The inventors hypothesized that SHetA2 acts by inhibiting p66Shc-induced activation of KATP channels in diabetic animals. Therefore, the inventors treated control and SHetA2 treated arterioles with increasing concentrations of glibenclamide, antidiabetic drug which binds and inhibits the ATP-sensitive potassium channel's KATP inhibitory subunit which causes increasing of intracellular Ca^2+ concentrations leading to arteriole constriction.

In the case of `CC1(C)CC(C)(C)c2cc(NC(=S)Nc3ccc([N+](=O)[O-])cc3)ccc2S1` [SHetA2, Sulfur Heteroarotinoid A2], the “progression of hypertension / increase of blood pressure” value in data set [1] (1% salt diet, long-term treatment) was “did not prevent; also recorded: lack of effect”. Also, the systolic blood pressure entry in data set [1] (hypertensive rats, 18 weeks treatment vs vehicle) is “did not significantly reduce”. Also, in data set [1] (long-term treatment), the body weight result is recorded as “lack of effect”. Also, in data set [2] (hypertensive SS rats, 1% salt diet, SHetA2 60 mg/kg oral gavage 3 times weekly, 18 weeks, about 24 hours after final treatment, 60 mg/kg), the “renal microvascular responses of afferent arterioles to increasing perfusion pressure or ATP” value is recorded as “restored”. The renal damage result in data set [2] (hypertensive rats) is “mitigates”. Moreover, in data set [2] (male and female rats (FIG. 17)), the “vessel diameter after chronic administration of SHetA2” value is recorded as “decrease”. In addition, the urinary protein excretion entry is recorded as “reduces or prevents” with diabetic nephropathy; “reduces or prevents” in data set [4] (S36A salt-sensitive animals); “statistically significant decrease; also recorded: significantly reduces” in data set [4] (wild type SS hypertensive rats, SHetA2 60 mg/kg oral gavage, vs control-treated rats, 60 mg/kg); “reduces or prevents” in data set [4] (wild type SS hypertensive rats, SHetA2 60 mg/kg oral gavage, vs control-treated rats, listed as SHet2A). For the same compound, the “effect on heart function” value in data set [3] (animal models, after months of treatment) is given as “does not have any detectable effect”. For the same compound, the “teratogenicity (birth defects)” value in data set [3] (animal models) was “does not cause”. The toxicity entry in data set [3] (oral, doses 25-fold above the doses used in the rat hypertensive model) was “no toxicity”. Besides, the “development of microvascular damage” value with afferent arterioles (STZ diabetic rats) was “successfully prevented”. The renal microvascular responses result in the data set on afferent arterioles (acute treatment) is “increased”; with afferent arterioles (chronic treatment, oral gavage every other day), “increased”. The “signs of diabetic nephropathy (dilation of afferent arterioles)” value was “absence of effect” in the data set with afferent arterioles (p66ShcKO rats treated with STZ) and “reduces or prevents” in the data set on afferent arterioles (rats treated with streptozotocin (STZ)). Moreover, in data set [5] (dose dependence (FIG. 14)), the “vessel diameter in response to SHetA2 treatment” value is “dose-dependent decrease”. For the same compound, the “renal microvascular responses in renal afferent preglomerular arterioles” value in data set [5] (in vitro, hypertensive rats (FIG. 6)) is “partially restored”. The renal microvascular response result in data set [5] (salt-sensitive rats with hypertension, dose dependence (FIG. 14)) is given as “dose-dependent increase”.
Take `COc1ccc(Cl)cc1C(=O)NCCc1ccc(S(=O)(=O)NC(=O)NC2CCCCC2)cc1` [glibenclamide]: the arteriole constriction result in the data set on KATP channels (control arterioles, increasing glibenclamide concentrations) is given as “caused constriction”. The “signs of diabetic nephropathy” value in the data set on KATP channels (diabetic p66ShcKO rats) is “not diabetic p66ShcKO rats”; in the data set on KATP channels (diabetic rats), “effective in attenuating”. The “glibenclamide effect / arteriole constriction” value with KATP channels (diabetic rats / arterioles treated with SHetA2, increasing glibenclamide concentrations) was “not in SHetA2 treated arterioles; also recorded: lack of glibenclamide effect”.
